The source of these data is patent US9580435B2, “Pyrrolo[2,3-D]pyrimidine derivatives as CB2 receptor agonists” (priority 2013, dated 2017).

Structures are written as SMILES. Like-named read-outs stand apart in the source and are kept apart here.

For orientation: EC50 means the concentration giving half of the maximal effect.

One assay concerns the target T1, human CB1 receptors (Homo sapiens, UniProt P21554).
T1 construct: expressed in transfected cells; host or cells: CHO cells
Put plainly: functional cAMP assay, CHO cells expressing human CB1 receptors. It is filed as cell-based. As to the method:
(§1) CHO cells expressing human CB1 or CB2 receptors are seeded 17-24 hours prior to the experiment 50.000 cells per well in a black 96 well plate with flat clear bottom (Corning Costar #3904) in DMEM (Invitrogen No. 31331), lx HT supplement, with 10% fetal calf serum and incubated at 5% CO2 and 37° C. in a humidified incubator. The growth medium was exchanged with Krebs Ringer Bicarbonate buffer with 1 mM IBMX and incubated at 30° C. for 30 min. Compounds were added to a final assay volume of 100 μl and incubated for 30 min at 30° C. Using the cAMP-Nano-TRF detection kit the assay (Roche Diagnostics) was stopped by the addition of 50 μl lysis reagent (Tris, NaCl, 1.5% Triton X100, 2.5% NP40, 10% NaN3) and 50 μl detection solutions (20 μM mAb Alexa700-cAMP 1:1, and 48 μM Ruthenium-2-AHA-cAMP) and shaken for 2 h at room temperature. The time-resolved energy transfer is measured by a TRF reader (Evotec Technologies GmbH), equipped with a ND:YAG laser as excitation source. The plate is measured twice with the excitation at 355 nm and at the emission with a delay of 100 ns and a gate of 100 ns, total exposure time 10 s at 730 (bandwidth 30 nm) or 645 nm (bandwidth 75 nm), respectively. The FRET signal is calculated as follows: FRET=T730-Alexa730-P(T645-B645) with P=Ru730-B730/Ru645-B645, where T730 is the test well measured at 730 nM, T645 is the test well measured at 645 nm, B730 and B645 are the buffer controls at 730 nm and 645 nm, respectively. cAMP content is determined from the function of a standard curve spanning from 10 μM to 0.13 nM cAMP.
(§2) EC50 values were determined using Activity Base analysis (ID Business Solution, Limited). The EC50 values for a wide range of cannabinoid agonists generated from this assay were in agreement with the values published in the scientific literature.

In a further assay the target is T2, human CB2 receptors (Homo sapiens, UniProt P34972).
T2 construct: expressed in transfected cells; host or cells: CHO cells
T2 sequence (P34972 whole entry): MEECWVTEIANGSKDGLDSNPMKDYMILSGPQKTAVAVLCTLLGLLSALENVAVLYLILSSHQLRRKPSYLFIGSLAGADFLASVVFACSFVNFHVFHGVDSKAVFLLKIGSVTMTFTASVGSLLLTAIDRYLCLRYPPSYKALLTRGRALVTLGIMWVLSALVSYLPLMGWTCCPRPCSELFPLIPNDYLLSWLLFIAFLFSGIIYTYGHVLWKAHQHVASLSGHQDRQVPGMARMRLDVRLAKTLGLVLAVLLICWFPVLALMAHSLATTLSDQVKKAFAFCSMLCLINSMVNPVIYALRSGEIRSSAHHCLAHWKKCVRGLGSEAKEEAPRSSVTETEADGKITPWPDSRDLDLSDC
Put plainly: functional cAMP assay, CHO cells expressing human CB2 receptors. It is filed as cell-based. On the procedure: as §1, §2

Setting [1] is: human EC50, functional cAMP assay, CHO cells expressing human CB2, read-out: EC50:CB2.

T1 sequence (P21554 whole entry): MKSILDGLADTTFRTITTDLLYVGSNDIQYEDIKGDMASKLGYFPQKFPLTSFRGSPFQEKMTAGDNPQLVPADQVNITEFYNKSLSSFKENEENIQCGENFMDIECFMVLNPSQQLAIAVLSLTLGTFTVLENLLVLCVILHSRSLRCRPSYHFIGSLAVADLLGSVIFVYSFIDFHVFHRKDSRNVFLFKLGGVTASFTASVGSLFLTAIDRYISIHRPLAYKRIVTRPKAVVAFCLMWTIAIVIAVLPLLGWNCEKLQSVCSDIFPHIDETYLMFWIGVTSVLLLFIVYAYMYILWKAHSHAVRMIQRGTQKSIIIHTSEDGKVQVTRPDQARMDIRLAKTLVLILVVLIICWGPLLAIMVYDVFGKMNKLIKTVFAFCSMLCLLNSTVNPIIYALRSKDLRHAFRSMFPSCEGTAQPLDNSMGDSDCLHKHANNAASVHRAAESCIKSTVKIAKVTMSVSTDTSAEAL

Consider `CC(C)(C)c1nc(N2CC[C@H](O)C2)c2ccn(Cc3cccc(Cl)c3Cl)c2n1` [Example 42, (3S)-1-[2-tert-butyl-7-[(2,3-dichlorophenyl)methyl]pyrrolo[2,3-d]pyrimidin-4-yl]pyrrolidin-3-ol], for which the EC50 at human CB1 receptors is over 10000 nM; on human CB2 receptors it was 3.5 nM.

As for `CC(C)(C)c1nc(N2CCC(F)(F)C2)c2ccn(Cc3cccnc3Cl)c2n1` [Example 6, 2-tert-butyl-7-[(2-chloropyridin-3-yl)methyl]-4-(3,3-difluoropyrrolidin-1-yl)pyrrolo[2,3-d]pyrimidine], the EC50 is over 10000 nM on human CB1 receptors and 12 nM at human CB2 receptors.

For the compound `Cc1nnc(Cn2ccc3c(N4CC5(COC5)C4)nc(C(C)(C)C)nc32)o1` [Example 23, 6-[2-tert-butyl-7-[(5-methyl-1,3,4-oxadiazol-2-yl)methyl]pyrrolo[2,3-d]pyrimidin-4-yl]-2-oxa-6-azaspiro[3.3]heptane], the results for the EC50 at human CB1 receptors and at human CB2 receptors (setting [1]) were over 10000 nM and 468 nM, respectively.

`Cn1nnnc1Cn1ccc2c(N3CCC(O)C3)nc(C(C)(C)C)nc21` (stereo not shown) [Example 34, 1-[2-tert-butyl-7-[(1-methyltetrazol-5-yl)methyl]pyrrolo[2,3-d]pyrimidin-4-yl]pyrrolidin-3-ol]: the results for the EC50 on human CB1 receptors and at human CB2 receptors (setting [1]) were over 10000 nM and 134 nM, respectively.

Consider `CC(C)(C)c1nc(N2CCC(O)C2)c2ccn(Cc3nnnn3C3CC3)c2n1` (stereo not shown) [Example 38, 1-[2-tert-butyl-7-[(1-cyclopropyltetrazol-5-yl)methyl]pyrrolo[2,3-d]pyrimidin-4-yl]pyrrolidin-3-ol], for which the EC50 was over 10000 nM on human CB1 receptors and 173 nM on human CB2 receptors (setting [1]).

On to `CC(=O)OC1CCN(c2nc(C(C)(C)C)nc3c2ccn3Cc2cccc(Cl)c2Cl)C1` (stereo not shown) [Example 36, [1-[2-tert-butyl-7-[(2,3-dichlorophenyl)methyl]pyrrolo[2,3-d]pyrimidin-4-yl]pyrrolidin-3-yl]acetate], for which the EC50 on human CB1 receptors was over 10000 nM; on human CB2 receptors, 85.3 nM.

On to `Cc1nonc1Cn1ccc2c(N3CC[C@H](O)C3)nc(C(C)(C)C)nc21` [Example 48, (3S)-1-[2-tert-butyl-7-[(4-methyl-1,2,5-oxadiazol-3-yl)methyl]pyrrolo[2,3-d]pyrimidin-4-yl]pyrrolidin-3-ol], for which the EC50 on human CB1 receptors was over 10000 nM; at human CB2 receptors, 8.5 nM.

For the compound `CC(C)(C)c1nc(N2CCC(F)(F)C2)c2ccn(Cc3ccc(F)cc3Cl)c2n1` [Example 2, 2-tert-butyl-7-[(2-chloro-4-fluorophenyl)methyl]-4-(3,3-difluoropyrrolidin-1-yl)pyrrolo[2,3-d]pyrimidine], the EC50 was over 10000 nM at human CB1 receptors and 26.5 nM on human CB2 receptors.

Regarding `CC(C)(C)c1nc(N2CCC(O)C2)c2ccn(Cc3ccccc3Cl)c2n1` (stereo not shown) [Example 24, 1-[2-tert-butyl-7-[(2-chlorophenyl)methyl]pyrrolo[2,3-d]pyrimidin-4-yl]pyrrolidin-3-ol], the EC50 was over 10000 nM at human CB1 receptors and 411 nM at human CB2 receptors (setting [1]).

On to `CC(C)(C)c1nc(N2CCC(F)(F)C2)c2ccn(Cc3ccccc3S(C)(=O)=O)c2n1` [Example 3, 2-tert-butyl-4-(3,3-difluoropyrrolidin-1-yl)-7-[(2-methylsulfonylphenyl)methyl]pyrrolo[2,3-d]pyrimidine], for which the EC50 on human CB1 receptors is over 10000 nM; at human CB2 receptors it was 11.6 nM.

Consider `Cc1nnc(Cn2ccc3c(N4CCC(F)(F)C4)nc(C(C)(C)C)nc32)n1C` [Example 11, 2-tert-butyl-4-(3,3-difluoropyrrolidin-1-yl)-7-[(4,5-dimethyl-1,2,4-triazol-3-yl)methyl]pyrrolo[2,3-d]pyrimidine], for which the values for the EC50 on human CB1 receptors and on human CB2 receptors were over 10000 nM and 30.8 nM, respectively.

On to `CC(C)(C)c1nc(N2CCC(F)(F)C2)c2ccn(Cc3cccc(Cl)c3Cl)c2n1` [Example 5, 2-tert-butyl-7-[(2,3-dichlorophenyl)methyl]-4-(3,3-difluoropyrrolidin-1-yl) pyrrolo[2,3-d]pyrimidine], for which the EC50 was over 10000 nM at human CB1 receptors and 12.5 nM at human CB2 receptors.

On to `CC(C)(C)c1nc(N2CC3(COC3)C2)c2ccn(Cc3ccccc3Cl)c2n1` [Example 14, 6-[2-tert-butyl-7-[(2-chlorophenyl)methyl]pyrrolo[2,3-d]pyrimidin-4-yl]-2-oxa-6-azaspiro[3.3]heptane], for which the EC50 is over 10000 nM on human CB1 receptors and 15.3 nM on human CB2 receptors.

Consider `Cc1nnc(Cn2ccc3c(N4CCC(F)(F)C4)nc(C(C)(C)C)nc32)o1` [Example 10, 2-[[2-tert-butyl-4-(3,3-difluoropyrrolidin-1-yl)pyrrolo[2,3-d]pyrimidin-7-yl]methyl]-5-methyl-1,3,4-oxadiazole], for which the EC50 was over 10000 nM at human CB1 receptors and 29.6 nM at human CB2 receptors.

Regarding `CC(C)(C)c1nc(N2CC3(COC3)C2)c2ccn([C@@H]3CCOC3)c2n1` [Example 17, 6-[2-tert-butyl-7-[(3R)-oxolan-3-yl]pyrrolo[2,3-d]pyrimidin-4-yl]-2-oxa-6-azaspiro[3.3]heptane], the EC50 is over 10000 nM on human CB1 receptors and 61.8 nM on human CB2 receptors.

For the compound `CC(C)(C)c1nc(N2CCC(F)(F)C2)c2ccn(Cc3c[nH]nc3C(F)(F)F)c2n1` [Example 41, 2-tert-butyl-4-(3,3-difluoropyrrolidin-1-yl)-7-[[3-(trifluoromethyl)-1H-pyrazol-4-yl]methyl]pyrrolo[2,3-d]pyrimidine], the EC50 on human CB1 receptors came to 1840 nM; on human CB2 receptors, 13.5 nM.

On to `Cc1nnc(Cn2ccc3c(N4CCC(O)C4)nc(C(C)(C)C)nc32)o1` (stereo not shown) [Example 33, 1-[2-tert-butyl-7-[(5-methyl-1,3,4-oxadiazol-2-yl)methyl]pyrrolo[2,3-d]pyrimidin-4-yl]pyrrolidin-3-ol], for which the EC50 on human CB1 receptors is over 10000 nM; on human CB2 receptors (setting [1]), 350 nM.

Regarding `CC(C)(C)c1nc(N2CCC(O)C2)c2ccn(Cc3cccnc3Cl)c2n1` (stereo not shown) [Example 29, 1-[2-tert-butyl-7-[(2-chloropyridin-3-yl)methyl]pyrrolo[2,3-d]pyrimidin-4-yl]pyrrolidin-3-ol], the EC50 is over 10000 nM on human CB1 receptors and 3.6 nM on human CB2 receptors.

For `Cc1noc(Cn2ccc3c(N4CCC(F)(F)C4)nc(C(C)(C)C)nc32)n1` [Example 8, 5-[[2-tert-butyl-4-(3,3-difluoropyrrolidin-1-yl)pyrrolo[2,3-d]pyrimidin-7-yl]methyl]-3-methyl-1,2,4-oxadiazole], the EC50 was over 10000 nM on human CB1 receptors and 49.6 nM at human CB2 receptors.

`CC(=O)OC1CCN(c2nc(C(C)(C)C)nc3c2ccn3Cc2nonc2C)C1` (stereo not shown) [Example 37, [1-[2-tert-butyl-7-[(4-methyl-1,2,5-oxadiazol-3-yl)methyl]pyrrolo[2,3-d]pyrimidin-4-yl]pyrrolidin-3-yl]acetate]: the EC50 is over 10000 nM at human CB1 receptors and 88.7 nM at human CB2 receptors.

Regarding `CC(C)(C)c1nc(N2CCC(O)C2)c2ccn(Cc3ccccc3S(C)(=O)=O)c2n1` (stereo not shown) [Example 26, 1-[2-tert-butyl-7-[(2-methylsulfonylphenyl)methyl]pyrrolo[2,3-d]pyrimidin-4-yl]pyrrolidin-3-ol], the EC50 is over 10000 nM at human CB1 receptors and 16.8 nM at human CB2 receptors.

With `CC(C)(C)c1nc(N2CC[C@H](O)C2)c2ccn(Cc3ccc(F)cc3Cl)c2n1` [Example 43, (3S)-1-[2-tert-butyl-7-[(2-chloro-4-fluorophenyl)methyl]pyrrolo[2,3-d]pyrimidin-4-yl]pyrrolidin-3-ol], the EC50 on human CB1 receptors is over 10000 nM; at human CB2 receptors, 6.3 nM.

Take `Cc1nonc1Cn1ccc2c(N3CCC(F)(F)C3)nc(C(C)(C)C)nc21` [Example 9, 3-[[2-tert-butyl-4-(3,3-difluoropyrrolidin-1-yl)pyrrolo[2,3-d]pyrimidin-7-yl]methyl]-4-methyl-1,2,5-oxadiazole]: the figures for the EC50 on human CB1 receptors and on human CB2 receptors were over 10000 nM and 9.5 nM, respectively.

In the case of `CC(C)(C)c1nc(N2CC3(COC3)C2)c2ccn(Cc3ccc(F)cc3Cl)c2n1` [Example 18, 6-[2-tert-butyl-7-[(2-chloro-4-fluorophenyl)methyl]pyrrolo[2,3-d]pyrimidin-4-yl]-2-oxa-6-azaspiro[3.3]heptane], the EC50 at human CB1 receptors was over 10000 nM; at human CB2 receptors, 42.5 nM.

For the compound `Cc1nonc1Cn1ccc2c(N3CC4(COC4)C3)nc(C(C)(C)C)nc21` [Example 22, 6-[2-tert-butyl-7-[(4-methyl-1,2,5-oxadiazol-3-yl)methyl]pyrrolo[2,3-d]pyrimidin-4-yl]-2-oxa-6-azaspiro[3.3]heptane], the EC50 on human CB1 receptors was over 10000 nM; on human CB2 receptors, 48.4 nM.

With `CC(C)(C)c1nc(N2CC3(COC3)C2)c2ccn(Cc3cccc(Cl)c3Cl)c2n1` [Example 21, 6-[2-tert-butyl-7-[(2,3-dichlorophenyl)methyl]pyrrolo[2,3-d]pyrimidin-4-yl]-2-oxa-6-azaspiro[3.3]heptane], the EC50 on human CB1 receptors was over 10000 nM; on human CB2 receptors it was 91.4 nM.
